Measurements taken from patent publication US20070014739A1, “Compositions and methods for controlling biofilms and bacterial infections” (priority 2005, published 2007).

Columns and labels:
[1] = Bladder concentrations in rats (pharmacokinetic study); details: rat, in vivo, po, 50 mg/kg
Procedure: Pharmacokinetic studies of asiatic acid and madecassic acid in rats were performed separately. Asiatic acid and madecassic acid were evaluated at 50 mg/kg (oral). Two animals were assigned to the each group. Prior to dosing, a baseline blood sample was taken from each animal. At time zero for asiatic acid and madecassic acid, a single bolus dose in 50% Labrasol (Gattefosse) was given to each animal. Bladders were analyzed at 24 hours. Concentrations of both asiatic acid and madecassic acid in the bladder were approximately 30 μg/g at 24 hours.

S. sobrinus 6715 = test: Biofilm growth inhibition in 1 mL polycarbonate tubes; type: cell-based; details: Streptococcus sobrinus, 40 μg/mL
[2] = test system: E. coli clinical strain UT189 against bladder epithelial cells; test: Binding to and invasion of bladder epithelial cells by E. coli; type: cell-based; details: 40 μg/ml, 60 minutes; separate experiments (n=4 to 7)
Procedure: The effect of test compounds on bacterial invasion of E. coli clinical strain UT189 was studied as described in Elsinghorst, et al. 1994, Methods Enzymol, 236:405-420; and Martinez et al., 2000, EMBO J., 19:2803-2812. Epithelial bladder cells were grown in plates. Asiatic acid, corosolic acid, or ursolic acid were added at concentrations of 10 μg/ml, 20 μg/ml, or 40 μg/ml to bacteria and epithelial cells for approximately 5, 15, 30, or 60 minutes with approximately 10^7 CFU of E. coli. Binding was assessed at time zero and invasion was assessed at approximately 5, 15, 30, or 60 minutes from completing the mixture of compound, bacteria, and epithelial cells. As a control ethanol was added to cells to a final concentration of 0.1%. The effect of bacterial viability and bacterial adherence during the infection period was evaluated according to the methods described in Martinez et al., 2000, EMBO J., 19:2803-2812.

E. coli UTI89[pCOMGFP] = test: Bladder colonization (CFU) in infected mice, oral treatment; type: in vivo, Escherichia coli; details: C3H/HeN mice, approximately 2 days after inoculation
Procedure: Briefly, E. coli UTI89[pCOMGFP] was prepared after retrieval from frozen stocks by inoculating appropriately in LB medium statically for approximately 20 hours. Cells were harvested and suspended in 1 ml of PBS. Cells were diluted appropriately to achieve approximately 10^7 CFU input into C3H/HeN mice.
Mice were deprived of water for approximately two hours. All mice were anesthetized with isofluorane. Urine was dispelled from the bladders and an inoculum of approximately 10^7 CFU of E. coli were introduced into the bladders as indicated above. Treatments of sulfamethoxazole and trimethoprim (SMZ/TMP), asiatic acid, and combination of SMZ/TMP and asiatic acid was evaluated.
3 mice received asiatic acid by orally at approximately 25 milligram per kilogram twice a day beginning one day prior to infection each day during the experiment. Asiatic acid was prepared in 50% Labrasol®. 5 mice received SMZ/TMP in their drinking water at a concentration of 270 micrograms of SMZ per millilter and 54 micrograms of TMP per milliliter immediately after infection throughout the experiment. 5 mice received asiatic acid and SMZ/TMP in combination dosed according to the individual dosing groups. The experiment was performed for approximately 2 days after inoculation. […] The bladders were removed and colony forming units (CFU) were determined as previously described by Justice, S. et al.

[3] = test system: Clinical isolates of P. aeruginosa from cystic fibrosis patients; test: Detachment of mature biofilms on peg lids, crystal violet; type: cell-based; details: 5 ug/ml, approximately 40 hours; eighteen clinical isolates; compared to negative controls
Procedure: Clinical isolates of P. aeruginosa from cystic fibrosis patients were passed twice on tryptic soy agar with 5% sheep blood after retrieval from −80° C. and then grown overnight in CAMHB. After dilution of a culture to 0.5 McFarland in broth medium, 100 μl was transferred in triplicate to wells of a flat-bottom 96-well microtiter plate. Bacterial biofilms were formed by immersing the pegs of a modified polystyrene microtiter lid into this biofilm growth plate, followed by incubation at 37° C. for 20 hours with no movement.
Peg lids were rinsed three times in sterile water, placed onto flat-bottom microtiter plates containing biofilm inhibitors at 5 ug/ml in 100 μl of CAMHB per well and incubated for approximately 40 hours at 37° C.
Pegs were rinsed, placed in a 0.1% (wt/vol) crystal violet solution for 15 min, rinsed again, and dried for several hours. To solubilize adsorbed crystal violet, pegs were incubated in 95% ethanol (150 μl per well of a flat-bottom microtiter plate) for 15 min. The absorbance was read at 590 nm on a plate reader. The wells containing asiatic acid were compared to negative controls. Negative controls were prepared as stated above but without asiatic acid.

[4] = test system: E. coli clinical strain UT189; test: Inhibition of biofilm formation, crystal violet, 96 well plates; type: cell-based; details: Escherichia coli, compared to the controls, read-out: inhibited biofilm formation of the UT189 strain
Procedure: Biofilm inhibition experiments were conducted using an assay adapted from the reported protocol described in Pratt and Kolter, 1998, Molecular Microbiology, 30: 285-293; Li et al., 2001, J. Bacteriol., 183: 897-908. E. coli clinical strain UT189 was grown in LB in 96 well plates at room temperature for one or two days without shaking. E. coli laboratory strain JM109 was grown in LB plus 0.2% glucose in 96 well plates at room temperature for one day without shaking. To quantify the biofilm mass, the suspension culture was poured out and the biofilm was washed three times with water. The biofilm was stained with 0.1% crystal violet for 20 minutes. The plates were then washed three times with water. OD reading at 540 nm was measured to quantify the biofilm mass at the bottom of the wells. Then 95% ethanol was added to dissolve the dye at the bottom and on the wall and the OD reading at 540 nm was measured to quantify the total biofilm mass. To study the overall effect of the compounds (3.6 mg/mL in 100% ethanol as stock solution), it was added with the inoculation and a time course of biofilm mass was measured. Appropriate amounts of 100% ethanol were added to each sample to eliminate the effect of solvent. Each condition had 3-4 replicates on each plate and was performed over multiple days.

E. coli UT189[pCOMGFP] = test: Biofilm pods (IBCs) in bladders of infected mice, intravesical compound, confocal microscopy; type: in vivo, Escherichia coli; details: vs controls
Procedure: The procedures in this example has been previously reported by Justice, S. et al. Differentiation and development pathways of uropathogenic Escherichia coli in urinary tract pathogenesis. PNAS, 2004, 101(5), p. 1333-1338. Briefly, E. coli UT189[pCOMGFP] was prepared after retrieval from frozen stocks by inoculating appropriately in LB medium statically for approximately 20 hours. Cells were harvested and suspended in 1 ml of PBS. Cells were diluted appropriately to achieve approximately a 10^8 CFU or 10^7 CFU input into C3H/HeN mice (2 mice per group).
Mice were deprived of water for approximately two hours. In experiment 1, all mice were anesthetized with 0.15 cc ketamine cocktail. In experiment 2, all mice were anesthetized with isofluorane. In experiment 1, urine was dispelled from the bladders and approximately 40 μg/ml of test compound or an appropriate amount of ethanol as control was introduced into the bladders via catheterization of the urethra using a tubing coated tuberculin syringe. 30 minutes was allowed to elapse. In experiment 2, bladders were not pre-incubated with test compounds. Bladders were then expelled and an inoculum of 10^8 CFU (Experiment 1) or 10^7 CFU (Experiment 2) of E. coli containing 40 μg/ml of test compound or equivalent amount of ethanol as controls were introduced into the bladders as indicated above.
In experiment 1 five hours elapsed and in experiment 2 six hours elapsed, and then mice were anesthetized and sacrificed appropriately. The bladders were removed, bisected, stretched, and fixed in 3% paraformaldehyde for 1 hour at room temperature. Bladders were then permeabilized in 0.01% Triton/PBS for 10 minutes and counter stained with TOPRO3 (Molecular Probes) for 10 minutes for visualization by confocal microscopy. Bladders were mounted on Prolong antifade (Molecular Probes).

C[C@H]1[C@H](C)CC[C@]2(C(=O)O)CC[C@]3(C)C(=CC[C@@H]4[C@@]5(C)C[C@@H](O)[C@H](O)[C@@](C)(CO)[C@@H]5CC[C@]43C)[C@H]12 [Asiatic acid]
concentration at 24 h [1]: ~30000 ng/g | inhibition at 40 µg/mL (S. sobrinus 6715): > 75% | reduced invasion of E. coli into bladder epithelial cells [2]: 87% | bladder CFU (E. coli UTI89[pCOMGFP]; combination of SMZ/TMP and asiatic acid): 2.3×10^4 CFU | bladder CFU (E. coli UTI89[pCOMGFP]; single treatment (asiatic acid 25 mg/kg oral twice a day; SMZ/TMP 270/54 micrograms per ml in drinking water)): 2.9×10^3 CFU | average detachment of mature biofilms [3]: approximately 50% | inhibition at 4 µg/mL ([4]; 4 ug/ml): ~10% | inhibition at 8 µg/mL ([4]; 8 ug/ml): ~15% | inhibition at 16 µg/mL ([4]; 16 ug/ml): ~50% | inhibition at 32 µg/mL ([4]; 32 ug/ml): ~90% | reduction in biofilm pods or IBCs in the bladders of mice (E. coli UT189[pCOMGFP]; experiment 1: C3H/HeN mice, 40 μg/ml intravesical with 30 min pre-incubation, 10^8 CFU, five hours): 77% | reduction in large biofilm pods or large IBCs in the bladders of mice (E. coli UT189[pCOMGFP]; experiment 2: C3H/HeN mice, 40 μg/ml in inoculum, no pre-incubation, 10^7 CFU, six hours): ~60%
